From patent US5710166A, “N-acyl beta amino acid derivatives useful as platelet aggregation inhibitors” (The Monsanto Company, priority 1995, dated 1998)

Test system: platelet aggregation (Dog PRP)
Assay: In-Vitro Platelet Aggregation in PRP (ADP-induced, dog platelet-rich plasma)
Assay type: cell-based
Conditions: Canis lupus familiaris, ADP 50 um final concentration; for IC50: linear regression of dose response curve, read-out: IC50 (dosage at which 50% of platelet aggregation is inhibited)
Experimental: Healthy male or female dogs were fasted for 8 hours prior to drawing blood; then 30 ml whole blood was collected using a butterfly needle and 30 cc plastic syringe with 3 ml or 0.129M buffered sodium citrate (3.8%). The syringe was rotated carefully as blood was drawn to mix the citrate. Platelet-rich plasma (PRP) was prepared by centrifugation at 975 x g for 3.17 minutes at room temperature allowing the centrifuge to coast to a stop without braking. The PRP was removed from the blood with a plastic pipette and placed in a plastic capped, 50 mL Corning conical sterile centrifuge tube which was held at room temperature. Platelet poor plasma (PPP) was prepared by centrifuging the remaining blood at 2000 x g for 15 minutes at room temperature allowing the centrifuge to coast to a stop without braking. The PRP was adjusted with PPP to a count of 2-3×10^8 platelets per mL. 400 uL of the PRP preparation and 50 uL of the compounds solution to be tested or saline were preincubated for 1 minute at 37° C. in a […].). 50 uL of adenosine 5' diphosphate (ADP) (50 um final concentration) was added to the cuvettes and the aggregation was monitored for 1 minute. All compounds are tested in duplicate. Results are calculated as follows: Percent of control=[(maximal OD minus initial OD of compound) divided by (maximal OD minus initial OD of control saline)]×100. The % inhibition=100-(percent of control).
The compounds tested and their median inhibitory concentrations (IC50) are recorded in Table I. IC50 's (dosage at which 50% of platelet aggregation is inhibited) were calculated by linear regression of the dose response curve.

Structure (SMILES) | inhibition at 10 µM (compound at 10^-5 M, read-out: % Inh. (inhibition of platelet aggregation)) | IC50
N=C(N)c1ccc(CNc2cccc(C(=O)NCCC(=O)O)c2)cc1 [Example 2, β-[[3-[4-(aminoiminomethyl)benzyl]aminobenzoyl]amino]propanoic acid] | 28% | 
N=C(N)c1ccc(CNc2cccc(C(=O)NC(CC(=O)O)c3cccnc3)c2)cc1 (stereo not drawn) [Example 4, β-[[3-[4-(aminoiminomethyl)benzyl]aminobenzoyl]amino]-3-pyridinepropanoic acid] |  | 6.8 µM
N=C(N)c1ccc(CNCCC(=O)NC(CC(=O)O)c2cccnc2)cc1 (stereo not drawn) [Example 6, β-[[3-[4-(aminoiminomethyl)benzyl]aminopropanoyl]amino]-3-pyridinepropanoic acid] |  | 0.8 µM
